From patent publication US7632829B2, “Diazepan derivatives” (Hoffmann-La Roche Inc., priority 2006, dated 2009) come the findings set out here.

One may read the IC50 as the point on the concentration scale where inhibition reaches its midpoint.

In the experiment the target is T1, human chemokine receptor 2 isoform B (Homo sapiens, UniProt P41597).
T1 construct: host or cells: CHOK1-CCR2B-A5 (CHO-K1)
T1 sequence (P41597 1-360 isoform P41597-2): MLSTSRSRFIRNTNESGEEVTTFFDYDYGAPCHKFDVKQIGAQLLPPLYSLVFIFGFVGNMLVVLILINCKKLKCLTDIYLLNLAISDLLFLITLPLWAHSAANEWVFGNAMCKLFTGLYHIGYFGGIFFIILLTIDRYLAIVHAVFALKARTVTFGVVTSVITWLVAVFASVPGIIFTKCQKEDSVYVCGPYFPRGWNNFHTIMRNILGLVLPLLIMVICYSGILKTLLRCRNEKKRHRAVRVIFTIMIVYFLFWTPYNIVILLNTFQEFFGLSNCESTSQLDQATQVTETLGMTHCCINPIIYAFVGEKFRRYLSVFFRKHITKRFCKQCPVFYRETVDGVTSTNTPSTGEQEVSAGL
The experiment can be described thus: Calcium mobilization assay (FLIPR, CHOK1-CCR2B-A5 cells, 20 nM MCP-1). Format: cell-based. To be noted: Ca mobilisation assay, CCR2, antagonist activity vs 20 nM MCP-1. The method, then:
CHOK1-CCR2B-A5 cells (from Euroscreen) stably overexpressing the human chemokine receptor 2 isoform B were cultured in Nutrient Hams F12 medium supplemented with 5% FBS, 100 U/ml penicillin, 100 μg/ml streptomycin, 400 μg/ml G418 and 5 μg/ml puromycin.
For the assay cells were grown overnight in 384-well black clear flat bottom polystyrene plates (Costar) at 37° C. at 5% CO2. After washing with DMEM, 20 mM Hepes, 2.5 mM probenecid, 0.1% BSA (DMEM assay buffer) cells were loaded with 4 μM Fluo-4 in the same DMEM assay buffer for 2 hours at 30° C. Excess dye was removed and cells were washed with DMEM assay buffer. 384-well compound plates were prepared with DMEM assay buffer/0.5% DMSO with or without various concentrations of test compounds. Usually compounds were tested for agonist and antagonist activity.
Test compounds were added to the assay plate and agonist activity was monitored as fluorescence for 80 seconds with a FLIPR (488 nm excitation; 510-570 nm emission; Molecular Devices). After 20-30 min. of incubation at 30° C., 20 nM MCP-1 (R&D; Roche) was added and fluorescence was monitored again for 80 seconds. Increases in intracellular calcium are reported as maximum fluorescence after agonist exposure minus basal fluorescence before exposure. Antagonist activity is indicated as inhibitor concentration required for 50% inhibition of specific calcium increases.
In general terms: Calcium flux is commonly read through the fluorescence of an indicator in the cells.
For `O=C(/C=C/c1ccc(F)c(Cl)c1)N1CCC(=O)N(C[C@@H](O)CN2CC[C@H](CO)[C@H](O)C2)CC1` (mixture of isomers) [Example 337, 1-[(E)-3-(3-Chloro-4-fluoro-phenyl)-acryloyl]-4-[(S)-2-hydroxy-3-(cis-3-hydroxy-4-hydroxymethyl-piperidin-1-yl)-propyl]-[1,4]diazepan-5-one], the IC50 came to 0.071 µM.

In the case of `CC1CCC(O)CN1CCCCN1CCN(C(=O)/C=C/c2ccc(Cl)c(Cl)c2)CCC1=O` (racemic) [Example 487], the IC50 was 0.014 µM.

On to `CC1CCN(CCCCN2CCN(C(=O)/C=C/c3ccc(Cl)c(Cl)c3)CCC2=O)CC1O` (racemic) [Example 448], for which the IC50 is 0.181 µM.

Turning to `O=C(/C=C/c1ccc(Cl)c(Cl)c1)N1CCC(=O)N(CCCNC2CCOCC2)CC1` [Example 63, 1-[(E)-3-(3,4-Dichloro-phenyl)-acryloyl]-4-[3-(tetrahydro-pyran-4-ylamino)-propyl]-[1,4]diazepan-5-one], the concentration for half-maximal inhibition (IC50) was determined as 0.503 µM.

In the case of `O=C(/C=C/c1ccc(Cl)c(Cl)c1)N1CCC(=O)N(CCN2CCC(O)(c3cccnc3)CC2)CC1` [Example 99, 1-[(E)-3-(3,4-Dichloro-phenyl)-acryloyl]-4-[3-(4′-hydroxy-3′,4′,5′,6′-tetrahydro-2′H-[3,4′]bipyridinyl-1′-yl)-ethyl]-[1,4]diazepan-5-one], the half-inhibitory concentration (IC50) turned out to be 1.22 µM.

Consider `O=C(/C=C/c1ccc(Cl)c(Cl)c1)N1CCC(=O)N(CC(O)CN2CCC(CO)CC2)CC1` (racemic) [Example 291, (rac)-(1-[(E)-3-(3,4-Dichloro-phenyl)-acryloyl]-4-[2-hydroxy-3-(4-hydroxymethyl-piperidin-1-yl)-propyl]-[1,4]diazepan-5-one], for which the IC50 amounted to 0.404 µM.

For `CC1(CO)CCCN(CCCCN2CCN(C(=O)/C=C/c3ccc(Cl)c(Cl)c3)CCC2=O)C1` (racemic) [Example 445], the IC50 came to 0.354 µM.

Regarding `O=C(/C=C/c1ccc(Cl)c(Cl)c1)N1CCC(=O)N(C[C@@H](O)CN2CCC3(CC3)C(O)C2)CC1` (stereo partly drawn) [Example 327, 1-[(E)-3-(3,4-Dichloro-phenyl)-acryloyl]-4-[(S)-2-hydroxy-3-((−)-4-hydroxy-6-aza-spiro[2.5]oct-6-yl)-propyl]-[1,4]diazepan-5-one], the IC50 worked out at 0.002 µM.

As to `O=C(/C=C/c1ccc(F)c(Cl)c1)N1CCC(=O)N(CCCN2CCC3(CC3)C(O)C2)CC1` (stereo not drawn) [Example 192], the IC50 stood at 0.015 µM.

As to `CC1(C)CCN(C[C@H](O)CN2CCN(C(=O)/C=C/c3ccc(F)c(Cl)c3)CCC2=O)CC1O` (stereo partly drawn) [Example 343, 1-[(E)-3-(3-Chloro-4-fluoro-phenyl)-acryloyl]-4-[(S)-2-hydroxy-3-(3-hydroxy-4,4-dimethyl-piperidin-1-yl)-propyl]-[1,4]diazepan-5-one], the IC50 worked out at 0.011 µM.

In the case of `CCN(CC)C1CCN(CCCN2CCN(C(=O)/C=C/c3ccc(Cl)c(Cl)c3)CCC2=O)C1` (racemic) [Example 278, (rac)-1-[(E)-3-(3,4-Dichloro-phenyl)-acryloyl]-4-[3-(3-diethylamino-pyrollidin-1-yl)-propyl]-[1,4]diazepan-5-one], the IC50 came to 0.54 µM.

For “1-[(E)-3-(3,4-Dichloro-phenyl)-acryloyl]-4-[3-(4-methyl-piperazin-1-yl)-propyl]-[1,4]diazepan-5-one [Example 75]”, the IC50 turned out to be 0.267 µM.

Turning to `O=C(/C=C/c1ccc(Cl)c(Cl)c1)N1CCC(=O)N(CC(O)CN2CCCCC2)CC1` (racemic) [Example 166, (rac)-1-[(E)-3-(3,4-Dichloro-phenyl)-acryloyl]-4-(2-hydroxy-3-piperidin-1-yl-propyl)-[1,4]diazepan-5-one], the IC50 was 0.212 µM.

For `C[C@H]1[C@H](O)CCCN1CC(O)CN1CCN(C(=O)/C=C/c2ccc(Cl)c(Cl)c2)CCC1=O` (mixture of isomers) [Example 282], the IC50 was 0.212 µM.

Take `O=C(/C=C/c1cccc(Cl)c1)N1CCC(=O)N(CCCN2CCC3(CC3)C(O)C2)CC1` (stereo not drawn) [Example 496, 1-[(E)-3-(3-Chloro-phenyl)-acryloyl]-4-[3-((-)-4-hydroxy-6-aza-spiro[2.5]oct-6-yl)-propyl]-[1,4]diazepan-5-one]: the IC50 is 0.007 µM.

Regarding “4-(3-{4-[(E)-3-(3,4-Dichloro-phenyl)-acryloyl]-7-oxo-[1,4]diazepan-1-yl}-propylamino)-cyclohexanecarboxylic acid ethyl ester [Example 67]”, the concentration for half-maximal inhibition (IC50) was 0.241 µM.

In the case of `CC1CN(CCCCN2CCN(C(=O)/C=C/c3ccc(Cl)c(Cl)c3)CCC2=O)CCC1O` (racemic) [Example 440], the IC50 amounted to 0.103 µM.

`O=C(/C=C/c1ccc(Cl)c(Cl)c1)N1CCC(=O)N(CCCN2CCC(F)(F)CC2)CC1` [Example 55, 1-[(E)-3-(3,4-Dichloro-phenyl)-acryloyl]-4-[3-(4,4-difluoro-piperidin-1-yl)-propyl]-[1,4]diazepan-5-one]: the 50% inhibitory concentration (IC50) was found to be 0.098 µM.

In the case of `CC1(CO)CCCN1CC(O)CCN1CCN(C(=O)/C=C/c2ccc(Cl)c(Cl)c2)CCC1=O` (racemic) [Example 381], the IC50 is 0.236 µM.

For the compound `O=C(/C=C/c1ccc(Cl)c(Cl)c1)N1CCC(=O)N(C[C@@H](O)CN2CC[C@@H](CO)[C@H](O)C2)CC1` (mixture of isomers) [Example 333, 1-[(E)-3-(3,4-Dichloro-phenyl)-acryloyl]-4-[(S)-2-hydroxy-3-(trans-3-hydroxy-4-hydroxymethyl-piperidin-1-yl)-propyl]-[1,4]diazepan-5-one], the IC50 was 0.301 µM.

As to `COC(=O)N(C)C1CCN(CCCCN2CCN(C(=O)/C=C/c3ccc(F)c(Cl)c3)CCC2=O)CC1` [Example 402], the IC50 is 0.291 µM.

`O=C(/C=C/c1ccc(Cl)c(Cl)c1)N1CCC(=O)N(CCCCN2CCC(O)C2)CC1` (racemic) [Example 433]: the IC50 turned out to be 0.244 µM.

On to `C[C@H]1CCN(CCCN2CCN(C(=O)/C=C/c3ccc(F)c(Cl)c3)CCC2=O)C[C@H]1O` [Example 190, 1-[(E)-3-(3-Chloro-4-fluoro-phenyl)-acryloyl]-4-[3-((+, cis)-3-hydroxy-4-methyl-piperidin-1-yl)-propyl]-[1,4]diazepan-5-one], for which the 50% inhibitory concentration (IC50) came to 0.118 µM.

On to `O=C(/C=C/c1ccc(Cl)c(Cl)c1)N1CCC(=O)N(CCCCN2CCC(O)CC2)CC1` [Example 424], for which the IC50 was 0.119 µM.

In the case of `C[C@@H]1CCN(CCCCN2CCN(C(=O)/C=C/c3ccc(Cl)c(Cl)c3)CCC2=O)C[C@H]1O` (racemic) [Example 454, (rac)-1-[(E)-3-(3,4-Dichloro-phenyl)-acryloyl]-4-[4-(trans-3-hydroxy-4-methyl-piperidin-1-yl)-butyl]-[1,4]diazepan-5-one], the IC50 worked out at 0.23 µM.

With `CC1CCC(O)CN1CCCCN1CCN(C(=O)/C=C/c2ccc(Cl)c(Cl)c2)CCC1=O` (racemic) [Example 475], the IC50 was determined as 0.02 µM.

Consider `CN(CCO)CC(O)CN1CCN(C(=O)/C=C/c2ccc(Cl)c(Cl)c2)CCC1=O` (racemic) [Example 320], for which the IC50 stood at 1.49 µM.

Turning to `COCC1(C)CCCN(CC(O)CN2CCN(C(=O)/C=C/c3ccc(Cl)c(Cl)c3)CCC2=O)C1` (racemic) [Example 306], the IC50 came to 0.391 µM.

As for `CC1CCCCN1CCN1CCN(C(=O)C=Cc2ccc(Cl)c(Cl)c2)CCC1=O` (racemic) [Example 102, (+/−)-1-[(E)-3-(3,4-Dichloro-phenyl)-acryloyl]-4-[3-(2-methyl-piperidin-1-yl)-ethyl]-[1,4]diazepan-5-one], the IC50 amounted to 1.02 µM.

`O=C(/C=C/c1ccc(Cl)c(Cl)c1)N1CCC(=O)N(CCCCCN2CCCCC2)CC1` [Example 162, 1-[(E)-3-(3,4-Dichloro-phenyl)-acryloyl]-4-(5-piperidin-1-yl-pentyl)-[1,4]diazepan-5-one]: the half-inhibitory concentration (IC50) worked out at 0.319 µM.

As to `CC1(C)CN(CCCCN2CCN(C(=O)/C=C/c3ccc(Cl)c(Cl)c3)CCC2=O)CCC1O` (racemic) [Example 464], the IC50 worked out at 0.226 µM.

`O=C(/C=C/c1ccc(Cl)c(Cl)c1)N1CCC(=O)N(CCCCN2CCN(C3CC3)CC2)CC1` [Example 437]: the IC50 was determined as 0.463 µM.

As to `O=C(/C=C/c1ccc(F)c(Cl)c1)N1CCC(=O)N(CCCCN2CCC(O)CC2)CC1` [Example 384], the IC50 is 0.334 µM.

`COC(=O)N(C)C1CCN(CCCCN2CCN(C(=O)/C=C/c3ccc(Cl)c(Cl)c3)CCC2=O)CC1` [Example 442]: the IC50 turned out to be 0.085 µM.

In the case of `O=C(/C=C/c1ccc(Cl)c(Cl)c1)N1CCC(=O)N(CCC(O)CN2CCCCC2)CC1` (racemic) [Example 170, (rac)-1-[(E)-3-(3,4-Dichloro-phenyl)-acryloyl]-4-(3-hydroxy-4-piperidin-1-yl-butyl)-[1,4]diazepan-5-one], the 50% inhibitory concentration (IC50) stood at 0.448 µM.

`CC1(CO)CCN(CCCCN2CCN(C(=O)C=Cc3ccc(Cl)c(Cl)c3)CCC2=O)CC1O` (stereo not drawn) [Example 473]: the IC50 turned out to be 0.051 µM.
